“And” between values parts separate entries of the source, which are not always exact repeats. Identical values can stand only once. Like-named read-outs stand apart in the source and are kept apart here.
Columns and labels:
[1] = tested on: CQ-resistant P. falciparum FcB1/Colombia strain; assay: In vitro growth inhibition of P. falciparum ([3H]-hypoxanthine incorporation); assay type: cell-based, Plasmodium falciparum; conditions: for fold more active in comparison to the diester compound 17: ratio of IC50 against P. falciparum FcB1 versus 17; for times more active than FSM: ratio of IC50 against P. falciparum FcB1 versus FSM
Experimental: Specifically, IC50 (μM) values for the antiplasmodial activities were determined from four independent experiments as the mean values ± standard deviations. IC50 (μM) values for the cytotoxicity activities were determined from two independent experiments as the mean values ± standard deviations. IC50, SIs (ratio between IC50 (μM) of cytotoxicity/IC50 (μM) of the antiplasmodial activity), and XLogGP3 values for the FSM derivatives, hybrid, and conjugates are reported in Table 1.
The chloroquine-resistant FcB1/Colombia strain of Plasmodium falciparum was maintained in vitro on human erythrocytes in RPMI 1640 medium supplemented by 8% (v/v) heat-inactivated human serum, at 37 °C, under an atmosphere of 3% CO2, 6% O2, and 91% N2 [45]. In vitro drug susceptibility assays were measured by [^3H]-hypoxanthine incorporation. Drug stock solutions were prepared in DMSO. Compounds were serially diluted two-fold with 100 μL of culture medium in 96-well plates. Asynchronous parasite cultures (100 μL, 1% parasitaemia and 1% final hematocrite) were then added to each well and incubated for 24 h at 37 °C prior to the addition of 0.5μCi of [^3H]-hypoxanthine (GE Healthcare, France, 1 to 5Ci·mmol/mL) per well [42]. After a further incubation of 24 h, plates were frozen and thawed. Cell lysates were then collected onto fiberglass filters and counted in a liquid scintillation spectrometer. The growth inhibition for each drug concentration was determined by comparison of the radioactivity incorporated in the treated culture with that in the control culture maintained on the same plate. The IC50 value was obtained from the drug concentration–response curve and the results were expressed as the mean values ± standard deviations determined from several independent experiments. Chloroquine and artemisinin were used as antimalarial drug controls.

[2] = tested on: human primary fibroblasts (cell line AB943); assay: Cytotoxicity evaluation (resazurin) and selectivity index; assay type: cell-based; conditions: for SI: SI = IC50 (AB943)/IC50 (P.f. FcB1); for cytotoxicity in words: judged from SI, AB943 fibroblasts
Experimental: Moreover, their cytotoxicity was measured, as previously reported, upon the primary human fibroblast cell line AB943, which allowed the calculation of their selectivity index (SI).
Specifically, IC50 (μM) values for the antiplasmodial activities were determined from four independent experiments as the mean values ± standard deviations. IC50 (μM) values for the cytotoxicity activities were determined from two independent experiments as the mean values ± standard deviations.
Cytotoxicity evaluation was performed upon human primary fibroblasts (cell line AB943). Assays were realized in 96-well plates in DMEM + Glutamax without phenol red medium (Gibco) containing 25 mM HEPES, pH 7.3, 10% fetal calf serum under a 5% CO2 atmosphere, at 37 °C. After trypsin treatment, AB943 cells were seeded at 2000 cells per well in 100 µL. After 24 h of incubation, drugs diluted in culture medium were added (100 µL per well). Drug stock solutions were prepared in dimethyl sulfoxide (DMSO). The final DMSO concentration in the cultures remained below 1%. Control cultures were constituted of cultures treated with DMSO instead of drug. The cytotoxicity assay was based on the conversion of a redo-sensitive dye (resazurin) to a fluorescent product by viable cells. […] The percentage of inhibition of cell growth was calculated by comparing the fluorescence of cells maintained in the presence of drug to that in the absence of drug.

[3] = design: method as in PMID 10477522, PMID 17887769; conditions: in vitro and in a mouse model; cited from earlier work
[4] = CQ-resistant P. falciparum FcB1/Colombia strain, mean ± SD of four independent experiments, read-out: IC50

C[C@@H]1CC[C@H]2[C@@H](C)C(=O)O[C@@H]3O[C@@]4(C)CC[C@@H]1[C@]32OO4 [ART, artemisinin, reference compound]
IC50 ([1]; Plasmodium falciparum, CQ-resistant P. falciparum FcB1/Colombia strain, control drugs, unit (nM), read-out: IC50): 55 ± 13.6 nM

CCN(CC)CCCC(C)Nc1ccnc2cc(Cl)ccc12 (stereo not drawn) [CQ, Chloroquine, reference compound]
IC50 ([1]; Plasmodium falciparum, FCB1): 72 ± 7.4 nM

CCOP(=O)(CCCN(O)C(C)=O)OCC [Compound 17]
IC50 [1, 4]: > 100000 nM

CCOP(=O)(CCCN(O)C(=O)CCC(=O)N(O)CCCP(=O)(OCC)OCC)OCC [Compound 18, Tetraethyl-((succinylbis(hydroxyazanediyl))bis (propane-3,1-diyl))bis(phosphonate)]
IC50 ([1]; Plasmodium falciparum, FCB1): > 100000 nM

CCOP(=O)(CCCN(O)C(=O)CCC(=O)N1CCN(c2ccnc3cc(Cl)ccc23)CC1)OCC [Compound 19, Diethyl (3-(4-(4-(7-chloroquinolin-4-yl)piperazin-1-yl)-N-hydroxy-4-oxobutanamido)propyl) phosphonate]
IC50 ([1]; Plasmodium falciparum, FCB1): 2700 ± 500 nM
fold more active in comparison to the diester compound 17 [1]: 25–40
times more active than FSM [1]: 3.5–5.5
SI [2]: 23.9

CCOP(=O)(CCCN(O)C(=O)CCC(=O)NCCNc1ccnc2cc(Cl)ccc12)OCC.O=C(O)C(F)(F)F [Compound 20, 7-Chloro-N-(2-(4-((3-(diethoxyphosphoryl)propyl)(hydroxy)amino)-4oxobutanamido)ethyl)quinolin-4-aminium 2,2,2-trifluoroacetate]
IC50 ([1]; Plasmodium falciparum, FCB1): 4200 ± 900 nM
fold more active in comparison to the diester compound 17 [1]: 25–40
times more active than FSM [1]: 3.5–5.5
SI [2]: 23.7

CCOP(=O)(CCCN(O)C(=O)CC[C@H]1O[C@@H]2O[C@]3(C)CC[C@H]4[C@H](C)CC[C@@H]([C@H]1C)C24OO3)OCC [Compound 21, Diethyl (3-(N-hydroxy-3-((3S,5aS,6R,8aS,9R,10R,12R)-3,6,9-trimethyldecahydro-12H-3, 12-epoxy[1,2]dioxepino[4,3-i]isochromen-10-yl)propanamido)propyl)phosphonate]
IC50 ([1]; Plasmodium falciparum, FCB1): 28000 ± 11600 nM

CCOP(=O)(CCCN(O)C(=O)CCC(=O)NNC(=O)OC(C)(C)C)OCC [Compound 26, Tert-butyl 2-(4-((3-(diethoxyphosphoryl)propyl)(hydroxy)amino)-4-oxobutanoyl) hydrazine-1-carboxylate]
IC50 ([1]; Plasmodium falciparum, FCB1): 86000 ± 1400 nM

CCOP(=O)(CCCN(O)C(=O)CCC(=O)Nc1ccccc1N)OCC [Compound 27, Diethyl(3-(4-((2-aminophenyl)amino)-N-hydroxy-4-oxobutanamido)propyl) phosphonate]
IC50 ([1]; Plasmodium falciparum, FCB1): 81000 ± 2800 nM

CCOP(=O)(CCCN(O)C(=O)CCC(=O)N(Cc1ccccc1)Cc1ccccc1)OCC [Compound 28, Diethyl (3-(4-(dibenzylamino)-N-hydroxy-4-oxobutanamido)propyl)phosphonate]
IC50 ([1]; Plasmodium falciparum, FCB1): 38700 ± 10000 nM

CCOP(=O)(CCCN(O)C(=O)CCC(=O)Nc1ccc(Cc2ccc(NC(=O)OC(C)(C)C)cc2)cc1)OCC [Compound 29, Tert-butyl(4-(4-(4-((3-(diethoxyphosphoryl)propyl)(hydroxy)amino)-4-oxobutanamido)benzyl)phenyl) carbamate]
IC50 ([1]; Plasmodium falciparum, FCB1): 22700 ± 1900 nM
SI [2]: 1.7
cytotoxicity in words [2]: cytotoxic

CCOP(=O)(CCCN(O)C(=O)CCC(=O)NCc1ccccc1)OCC [Compound 30, Diethyl (3-(4-(benzylamino)-N-hydroxy-4-oxobutanamido)propyl) phosphonate]
IC50 ([1]; Plasmodium falciparum, FCB1): > 100000 nM

CCOP(=O)(CCCN(O)C(=O)CCC(=O)NC(c1ccccc1)c1ccccc1)OCC [Compound 31, Diethyl(3-(4-(benzhydrylamino)-N-hydroxy-4-oxobutanamido)propyl)phosphonate]
IC50 ([1]; Plasmodium falciparum, FCB1): 44200 ± 9500 nM

CCOP(=O)(CCCN(O)C(=O)CCC(=O)N1CCN(C)CC1)OCC [Compound 32, Diethyl (3-(N-hydroxy-4-(4-methylpiperazin-1-yl)-4-oxobutanamido)propyl) phosphonate]
IC50 ([1]; Plasmodium falciparum, FCB1): > 100000 nM

CCOP(=O)(CCCN(O)C(=O)CCC(=O)N1CCNCC1)OCC [Compound 33, 4-(4-((3-(Diethoxyphosphoryl)propyl)(hydroxy)amino)-4-oxobutanoyl)piperazin-1-ium 2,2,2-trifluoroacetate]
IC50 ([1]; Plasmodium falciparum, FCB1): > 100000 nM

CCOP(=O)(CCCNc1ccccc1N)OCC [Compound 34, Diethyl (3-((2-aminophenyl)amino)propyl)phosphonate]
IC50 [1, 4]: 8200 ± 2700 nM
SI [2]: 3.7
cytotoxicity in words [2]: cytotoxic

Nc1ccccc1NCCCP(=O)(O)O [Compound 35, (3-((2-Aminophenyl)amino)propyl)phosphonic acid]
IC50 ([1]; Plasmodium falciparum, FCB1): > 100000 nM

CC(=O)N(O)CCCP(=O)(O)O [FR900098, reference compound]
IC50 ([1]; Plasmodium falciparum, FCB1): 7000 nM
SI [2]: >14.2
activity relative to FSM [3]: about twice as active as FSM

O=CN(O)CCCP(=O)(O)O [FSM, fosmidomycin, reference compound]
fold less active than FR900098 ([1]; P. falciparum FcB1): 2
IC50 ([1]; Plasmodium falciparum, CQ-resistant P. falciparum FcB1/Colombia strain, mean ± SD of four independent experiments, read-out: IC50): 15000 ± 1700 nM
SI [2]: >6.6

Diethyl(3-(4-(bis(4-(3-((3S,5aS,6R,8aS,9R,10R,12R)-3,6,9-trimethyldecahydro-12H-3,12-epoxy[1,2]dioxepino[4,3-i]isochromen-10-yl)propanamido)butyl)amino)-N-hydroxy-4-oxobutanamido)propyl)phosphonate [Compound 23]
IC50 [1, 4]: 650 ± 260 nM
times more active than FSM [1]: 23–41
SI [2]: 34

Diethyl(3-(N-hydroxy-4-oxo-4-((4-(3-((3S,5aS,6R,8aS,9R,10R,12R)-3,6,9-trimethyldecahydro-12H-3,12-epoxy[1,2]dioxepino[4,3-i]isochromen-10-yl)propanamido)butyl)(3-(3-((3S,5aS,6R,8aS,9R,10R,12R)-3,6,9-trimethyldecahydro-12H-3,12-epoxy[1,2]dioxepino[4,3-i]isochromen-10-yl)propanamido)propyl)amino) butanamido)propyl)phosphonate [Compound 22]
IC50 [1, 4]: 360 ± 90 nM
times more active than FSM [1]: 23–41
SI [2]: 94 and 94.1

Source: publication PMC7587979 (Molecules, 2020)
